# In patent US8304422B2, “Compositions and methods for inhibition of the JAK pathway” (Rigel Pharmaceuticals, Inc., priority 2007, dated 2012):
# Experiments:
# BaF3 V617F cells; UKE-1 = test: Proliferation Assay (Cell Titer-Glo; Example 7); format: cell-based; conditions: proliferation 72 hours, inhibit JAK2 activity, cell line (BaF3 V617F or UKE-1) not stated
# In short: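 BaF3 V617F cells (RPMI, 10% FBS) and UKE-1 cells (Iscove's DMEM, 10% FBS, 10% equine serum, 1 uM hydrocortisone) were exposed to 3-fold serially diluted compound in duplicate for 72 hours at 37 °C. Viable cell number quantified by Cell Titer-Glo luminescence; IC50 reported.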
# [1] = tested on: Ramos B-Cell Line Stimulated with IL-4; test: Assay for Ramos B-Cell Line Stimulated with IL-4 (CD23 upregulation, FACS; Example 2); format: cell-based; conditions: human Ramos B cells, IL-4 50 units/mL for 20-24 hours, anti-CD23-PE
# In short: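 Human Ramos B cells (5×10^4 per point, RPMI with 5% serum) preincubated 1 hour at 37° C with compound or DMSO, then stimulated with IL-4 at 50 units/mL final for 20-24 hours. CD23 upregulation measured by anti-CD23-PE staining and flow cytometry.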
Compound,IC50 (BaF3 V617F cells; UKE-1) [nM],IC50 [1] [nM]
"Cc1cnc(Nc2cccc(C#N)c2)nc1Nc1ccc(CNS(=O)(=O)C2CC2)cc1 [II-34, N2-(3-cyano)phenyl-N4-(4-cyclopropylsulfonylaminomethyl)phenyl-5-methyl-2,4-pyrimidinediamine]",460,45.5
"Cc1cnc(Nc2ccc(C(N)=O)cc2)nc1Nc1ccc(CN(C)S(=O)(=O)C2CC2)cc1 [II-19, N2-(4-aminocarbonyl)phenyl-N4-[4-(N-cyclopropylsulfonyl-N-methyl)aminomethyl]phenyl-5-methyl-2,4-pyrimidinediamine]",2210,106
"N#Cc1cccc(Nc2ncc(F)c(Nc3ccc(CNS(=O)(=O)C4CC4)cc3)n2)c1 [II-30, N2-(3-cyano)phenyl-N4-(4-cyclopropylsulfonylaminomethyl)phenyl-5-fluoro-2,4-pyrimidinediamine]",1130,94.6
"Cc1cnc(Nc2ccc3c(c2)nc(C)n3C)nc1Nc1ccc(CNS(=O)(=O)C2CC2)cc1 [IV-7, N4-(4-cyclopropylsulfonylaminomethyl)phenyl-N2-(1,2-dimethylbenzoimidazol-5-yl)-5-methyl-2,4-pyrimidinediamine]",796,116
